US20060121449A1, “Method for selection of compounds which inhibit clonal cell growth and use thereof” (priority 2002, published 2006)
“And” between values parts separate entries of the source, which are not always exact repeats. Identical values can stand only once. “Also recorded” adds a separate entry of the source.

Legend:
[1] = test system: polyoma virus transformed BHK21/c13 cells, line S100T1; experiment: Collocation inhibition test: clonal growth in sparsely and densely seeded areas of a cell density gradient of S100T1 cells in soft agar (Exp 13, 17, 19-26); settings: for Growth of treated wells with smallest cell number: 42000 cells/ml; for Growth in low density (sparsely seeded) areas of treated wells: 125000-375000 cells/ml; for Significance: Exp 17 day 14; for Resulting clonal growth of treated cultures: Experiment 26;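 for all read-outs here: soft agar cultures in 24-well plates with a cell density gradient in the top layer, compounds applied from DMSO stocks, clonal growth scored in sparse versus dense areas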
[2] = test system: polyoma virus transformed BHK21/c13 cells, clone S100T1; experiment: Clonal test: clonal growth of S100T1 cells in soft agar (Exp 2, 4, 6, 15, 16); format: cell-based, hamster; settings: for Growth, results after 3 days / Concentration inhibiting (stopping) clonal growth: Exp 2; for Growth, results after 3 days: 400000 S100T1 cells, 1.5% agarose; for Concentration inhibiting (stopping) clonal growth: S100T1, 1.5% agarose, 3 days; for Clonal growth, result day 7: Exp 4, 3 μM, 120000 S100T1 cells, 1.1% agarose; for Significance / Growth: 4-OH—OPB No 11; for Clonal inhibition: S100T1

For `CCCCC1(O)C(=O)N(c2ccccc2)N(c2ccc(O)cc2)C1=O` (stereo not shown) [4-OH-OPB, 4-butyl-4-hydroxy-2(p-hydroxyphenyl)-1-phenyl-3,5-pyrazolidinedione], the “Growth of treated wells with smallest cell number” value ([1]; Exp 20) was “did not grow even in dense areas”, the “Growth of treated wells with smallest cell number” value ([1]; Exp 20, listed as 4-OH—OPB) was “Low cell numbers, 42000 cells/ml gave no” and the “Growth in low density (sparsely seeded) areas of treated wells” value ([1]; Exp 20) was “very strong inhibition of growth”. The “Growth in low density (sparsely seeded) areas of treated wells” value ([1]; Exp 20, listed as 4-OH—OPB) was “growth. 125000-375000 cells/ml gave no”, the “Concentration with anti clonal effect on sparsely seeded cells” value ([1]; Exp 20, cross-titration of cell number and dose, 48 hours) was 1 µM and 1 to 18 µM and the Clonal growth ([1]; Exp 21, 117000 cells per well, Low concentration (see figure), H: area with high cell density) was “++(+)”. For the same compound, the Clonal growth ([1]; Exp 21, High concentration, H: area with high cell density) was “+”, the Clonal growth ([1]; Exp 21, High concentration, L: area with low cell density) was “−” and the Clonal growth ([1]; Exp 21, Low concentration, L: area with low cell density) was “+−”. The Clonal growth ([1]; Exp 21, Medium concentration, H: area with high cell density) was “++(+)”, the Clonal growth ([1]; Exp 21, Medium concentration, L: area with low cell density) was “−” and the “Growth in dense areas, high concentration” value ([1]; Exp 22, control inhibitor) was “absent”. For the same compound, the “Growth in dense areas, medium concentration” value ([1]; Exp 22, control inhibitor) was “doubtful”, the Effect on growth ([1]; Exp 23, 180000 S100T1 cells/well) was “complete inhibition of clonal growth in sparsely seeded areas” and the “Clonal growth in densely seeded areas at high or medium concentrations (9 and 3 μM)” value ([1]; Exp 24, control) was “reduced clonal growth”. For the same compound, the “Effect at 0.11 μM” value ([1]; Exp 24, control) was “The effect was gone”, the “Effect at 0.11 μM” value ([1]; Exp 25, control) was “no growth inhibition was observed” and the “Effect at 3 μM” value ([1]; Exp 25, control) was “substantial inhibition of the growth in densely seeded areas”. For the same compound, the “Densely seeded parts of the gradient, high concentration” value ([1]; Exp 26, read after 24 hours) was “did not affect the densely seeded parts of the gradient”, the “Inhibition of sparsely seeded cells, high and medium concentrations” value ([1]; Exp 26, read after 24 hours) was “nice and complete inhibition” and the “Sparsely seeded cells, low concentration” value ([1]; Exp 26, read after 24 hours) was “break through of clonal growth”. The Significance ([1]; a: close to densely seeded cell areas, High: Colchicine 1, Podophyllotoxin 3, Etoposide 200, 4-OH—OPB 6.7 μM in wells, DMSO 29.2 μl) was “Probably”, the Significance ([1]; a: close to densely seeded cell areas, Low: Colchicine 0.1, Podophyllotoxin 0.3, Etoposide 20, 4-OH—OPB 0.67 μM in wells, DMSO 1.16 μl) was “No” and the Significance ([1]; a: close to densely seeded cell areas, Medium: Colchicine 0.3, Podophyllotoxin 0.9, Etoposide 60, 4-OH—OPB 2 μM in wells, DMSO 6.8 μl) was “No”. For the same compound, the Significance ([1]; b: sparsely seeded areas, High: Colchicine 1, Podophyllotoxin 3, Etoposide 200, 4-OH—OPB 6.7 μM in wells, DMSO 29.2 μl) was “Yes”, the Significance ([1]; b: sparsely seeded areas, Low: Colchicine 0.1, Podophyllotoxin 0.3, Etoposide 20, 4-OH—OPB 0.67 μM in wells, DMSO 1.16 μl) was “No” and the Significance ([1]; b: sparsely seeded areas, Medium: Colchicine 0.3, Podophyllotoxin 0.9, Etoposide 60, 4-OH—OPB 2 μM in wells, DMSO 6.8 μl) was “Yes”. The Clonal growth ([1]; Experiment 22, H: area with high cell density, High concentration) was “−”, the Clonal growth ([1]; Experiment 22, H: area with high cell density, Low concentration) was “++” and the Clonal growth ([1]; Experiment 22, H: area with high cell density, Medium concentration) was “(+)”. For the same compound, the Clonal growth ([1]; Experiment 22, L: area with low cell density, High concentration) was “−”, the Clonal growth ([1]; Experiment 22, L: area with low cell density, Low concentration) was “−” and the Clonal growth ([1]; Experiment 22, L: area with low cell density, Medium concentration) was “−”. The Clonal growth ([1]; Experiment 23, A (area with high cell density), High concentration, 48 hours) was “(+)”, the Clonal growth ([1]; Experiment 23, A (area with high cell density), Low concentration, 48 hours) was “++(+)” and the Clonal growth ([1]; Experiment 23, A (area with high cell density), Medium concentration, 48 hours) was “+”. For the same compound, the Clonal growth ([1]; Experiment 23, B (area with low cell density), High concentration, 48 hours) was “−”, the Clonal growth ([1]; Experiment 23, B (area with low cell density), Low concentration, 48 hours) was “−” and the Clonal growth ([1]; Experiment 23, B (area with low cell density), Medium concentration, 48 hours) was “−”. For the same compound, the Clonal growth ([1]; Experiment 24, H: area with high cell density, High concentration, 48 hours) was “+”, the Clonal growth ([1]; Experiment 24, H: area with high cell density, Low concentration, 48 hours) was “++(+)” and the Clonal growth ([1]; Experiment 24, H: area with high cell density, Medium concentration, 48 hours) was “+”. For the same compound, the Clonal growth ([1]; Experiment 24, H: area with high cell density, X-low concentration, 48 hours) was “+(+)”, the Clonal growth ([1]; Experiment 24, H: area with high cell density, XX-low concentration, 48 hours) was “++” and the Clonal growth ([1]; Experiment 24, L: area with low cell density, High concentration, 48 hours) was “−”. The Clonal growth ([1]; Experiment 24, L: area with low cell density, Low concentration, 48 hours) was “−”, the Clonal growth ([1]; Experiment 24, L: area with low cell density, Medium concentration, 48 hours) was “−” and the Clonal growth ([1]; Experiment 24, L: area with low cell density, X-low concentration, 48 hours) was “−”. For the same compound, the Clonal growth ([1]; Experiment 24, L: area with low cell density, XX-low concentration, 48 hours) was “(+)”, the Clonal growth ([1]; Experiment 25, H: area with high cell density, High concentration, after 48 hours incubation) was “(+)” and the Clonal growth ([1]; Experiment 25, H: area with high cell density, Low concentration, after 48 hours incubation) was “++(+)”. The Clonal growth ([1]; Experiment 25, H: area with high cell density, Medium concentration, after 48 hours incubation) was “++”, the Clonal growth ([1]; Experiment 25, H: area with high cell density, X-low concentration, after 48 hours incubation) was “++” and the Clonal growth ([1]; Experiment 25, L: area with low cell density, High concentration, after 48 hours incubation) was “−”. The Clonal growth ([1]; Experiment 25, L: area with low cell density, Low concentration, after 48 hours incubation) was “−”, the Clonal growth ([1]; Experiment 25, L: area with low cell density, Medium concentration, after 48 hours incubation) was “−” and the Clonal growth ([1]; Experiment 25, L: area with low cell density, X-low concentration, after 48 hours incubation) was “++”. For the same compound, the “Resulting clonal growth of treated cultures” value (from here on “Resulting clonal growth”) ([1]; H: area with high cell density, High concentration, read after 24 hours) was “++”, the “Resulting clonal growth” value ([1]; H: area with high cell density, Low concentration, read after 24 hours) was “++” and the “Resulting clonal growth” value ([1]; H: area with high cell density, Medium concentration, read after 24 hours) was “++”. For the same compound, the “Resulting clonal growth” value ([1]; L: area with low cell density, High concentration, read after 24 hours) was “−”, the “Resulting clonal growth” value ([1]; L: area with low cell density, Low concentration, read after 24 hours) was “(+)” and the “Resulting clonal growth” value ([1]; L: area with low cell density, Medium concentration, read after 24 hours) was “−”. For the same compound, the “Control of metastatic cells leaving tumour” value ([1]; ability of cells to leave a tumour, grow and infiltrate locally or grow in sparsely seeded areas, concluded from Exp 17) was “yes”, the “Control of settlement of metastatic cells” value ([1]; single cells or very few cells spread to distant sites, concluded from Exp 17) was “completely” and the “Toxicity for body or dense cell populations” value ([1]; supposed main advantages or disadvantages if used in cancer treatment, concluded from Exp 17) was “none or small”. The “Tolerating long duration of treatment” value ([1]; supposed, if used in cancer treatment) was “yes”, the “Growth, results after 3 days” value ([2]; 500 nM) was “inhibited” and the “Growth, results after 3 days” value ([2]; 1000 nM) was “inhibited”. For the same compound, the “Growth, results after 3 days” value ([2]; 1500 nM) was “inhibited”, the “Growth, results after 3 days” value ([2]; 2000 nM) was “inhibited” and the “Growth, results after 3 days” value ([2]; 3000 nM) was “inhibited”. For the same compound, the “Concentration inhibiting (stopping) clonal growth” value [2] was ≥ 500 nM, the “Concentration inhibiting (stopping) clonal growth” value ([2]; listed as 4-OH—OPB) was “Even 500 nM stopped clonal growth” and the “Clonal growth, result day 7” value [2] was “no growth was observed”. For the same compound, the “Clonal growth, result day 7” value ([2]; listed as 4-OH—OPB) was “Single cells only; also recorded: Completely stopped clonal growth in”, the “Susceptibility after single cells had formed small clones (colonies)” value ([2]; Exp 6) was “no longer susceptible” and the “Concentration giving good clonal inhibition” value ([2]; Exp 6, S100T1, 120000 cells, treatment immediately after seeding) was “above 1 μM”. For the same compound, the “Growth inhibition at 30 μM when treatment delayed 24 hours” value ([2]; Exp 6, S100T1, small colonies already formed) was “small growth inhibition; also recorded: some inhibition of growth”, the “Susceptibility after single cells had formed small clones (colonies)” value ([2]; Exp 6, listed as 4-OH—OPB) was “they were not susceptible any more” and the “Effect on clonal growth at 2 and 20 μM” value ([2]; Exp 15, 32000 S100T1 cells/well) was “inhibiting clonal growth”. For the same compound, the “Control compared with the other compounds” value ([2]; Exp 16) was “clearly better than any other”, the Significance ([2]; Exp 16 day 14, 0.67 μM) was “yes” and the Growth ([2]; Exp 16 day 14, 0.67 μM in wells) was “−”. The Significance ([2]; Exp 16 day 14, 6.7 μM) was “yes”, the Growth ([2]; Exp 16 day 14, 6.7 μM in wells) was “−” and the Significance ([2]; Exp 16 day 21, 0.67 μM) was “yes”. For the same compound, the Growth ([2]; Exp 16 day 21, 0.67 μM in wells) was “−”, the Significance ([2]; Exp 16 day 21, 6.7 μM) was “yes” and the Growth ([2]; Exp 16 day 21, 6.7 μM in wells) was “−”. The Clonal inhibition ([2]; 0.3 μM added after 24 hours, read after 48 hours) was 0, the Clonal inhibition ([2]; 0.3 μM added immediately, read after 24 hours) was 0 and the Clonal inhibition ([2]; 0.3 μM added immediately, read after 48 hours) was 0. For the same compound, the Clonal inhibition ([2]; 1 μM added after 24 hours, read after 48 hours) was 0, the Clonal inhibition ([2]; 1 μM added immediately, read after 24 hours) was “+” and the Clonal inhibition ([2]; 1 μM added immediately, read after 48 hours) was 0. For the same compound, the Clonal inhibition ([2]; 3 μM added after 24 hours, read after 48 hours) was 0, the Clonal inhibition ([2]; 3 μM added immediately, read after 24 hours) was “++” and the Clonal inhibition ([2]; 3 μM added immediately, read after 48 hours) was “+−”. The Clonal inhibition ([2]; 10 μM added after 24 hours, read after 48 hours) was 0, the Clonal inhibition ([2]; 10 μM added immediately, read after 24 hours) was “+++” and the Clonal inhibition ([2]; 10 μM added immediately, read after 48 hours) was “+”. The Clonal inhibition ([2]; 30 μM added after 24 hours, read after 48 hours) was “+”, the Clonal inhibition ([2]; 30 μM added immediately, read after 48 hours) was “+++” and the “Anti-clonal effect, summary of Exp 16” value ([2]; S100T1 in soft agar) was 4-OH—OPB inhibited clones without escaping colonies. The “Inhibition of clonal growth at 300 nM” value ([2]; other/earlier experiments) was “no inhibition”.
